Reference: patent US20210106569A1, “OMIDENEPAG COMBINATION” (priority 2017, published 2021)

How the values were obtained:
normal pressure monkeys [1] = assay: Intraocular pressure lowering, concomitant administration of omidenepag isopropyl and netarsudil (Example 2); format: in vivo, cynomolgus monkey; settings: male cynomolgus monkeys, average of 8, eye drop 20 μL: omidenepag isopropyl 0.0006 w/v%, netarsudil 0.01 w/v% (dimesylate)
Experimental: (§1) In order to examine usefulness of the combination of omidenepag or an ester thereof or a salt thereof and netarsudil, the effect of lowering an intraocular pressure when omidenepag isopropyl and netarsudil were administered concomitantly to experimental animals (normal pressure monkeys) was investigated.
(1) Preparation of Base of Omidenepag Isopropyl Solution • (Preparation of Compound Solution to be Tested) […]
(2) Preparation of Omidenepag Isopropyl Solution
(§2) To purified water were added omidenepag isopropyl, polyoxyl 35 castor oil, glycerin, sodium citrate, sodium edetate and benzalkonium chloride to dissolve them, and after adjusting pH, purified water was added to adjust the whole amount to prepare a 0.0006 w/v% omidenepag isopropyl solution.
(3) Preparation of Netarsudil Solution
Dimesylate of netarsudil was dissolved in a physiological saline solution containing a solubilizing agent, and then, a netarsudil solution having a desired concentration was prepared by using a commonly used method.
(§3) An effect of lowering an intraocular pressure when omidenepag isopropyl and netarsudil were administered concomitantly was investigated. As a comparative subject, an effect of lowering an intraocular pressure when omidenepag isopropyl or netarsudil was administered alone was also investigated. As a control, the base of the omidenepag isopropyl solution and the base of the netarsudil solution were administered.
Omidenepag isopropyl solution: 0.0006w/v% omidenepag isopropyl solution (volume of eye dropped: 20 μL)
Netarsudil solution: 0.01 w/v% netarsudil solution (volume of eye dropped: 20 μL)
Experimental animal: cynomolgus monkey (sex: male, 8 monkeys per a group)
[1] Contamitant Administration of Omidenepag Isopropyl and Netarsudil
(§4) (1) A drop of 0.4% oxybuprocaine hydrochloride eye drop (trade name: Benoxil (Registered Trademark) eye drops 0.4%) was applied to one eye of an experimental animal and local anesthesia was conducted.
(§5) (2) Immediately before administration of a compound solution to be tested, an intraocular pressure was measured and the value was made an initial intraocular pressure.
(3) The omidenepag isopropyl solution was applied to one eye of the experimental animal (the contralateral eye was untreated). After a short time (after about 5 minutes), the netarsudil solution was applied to the same eye.
(4) After 2 hours, 4 hours, 6 hours, 8 hours and 24 hours from applying the omidenepag isopropyl solution to the eye, one drop of 0.4% oxybuprocaine hydrochloride eye drop was applied to the eye to be measured for the intraocular pressure respectively, and after local anesthesia, the intraocular pressure was measured. Also, the intraocular pressure was measured each three times, and the average value was shown in the results. […]
The test was carried out in the same manner as the above-mentioned concomitant administration test except for changing the omidenepag isopropyl solution to the base of the omidenepag isopropyl solution. […]
The changes in the intraocular pressure values are shown by an average value±SEM of the difference from the value (0 hour) before administration of eight monkeys in each group with regard to each measurement time point of each individual. Here, the significance was evaluated by the Dunnett-Hsu test, and the significance level with respect to the control group was shown as *: p<0.05, **: p<0.01, and ***: p<0.001, the significance level with respect to the omidenepag isopropyl administered group was shown as †: p<0.05, ††: p<0.01, and †††: p<0.001, and the significance level with respect to the netarsudil administered group was shown as ♯♯: p<0.01, and ♯♯♯p<0.001.

normal pressure monkeys [2] = assay: Intraocular pressure lowering, concomitant administration of omidenepag isopropyl and ripasudil (Example 1); format: in vivo, cynomolgus monkey; settings: male cynomolgus monkeys, average of 7, eye drop 20 μL: omidenepag isopropyl 0.0006 w/v%, ripasudil eye drops 0.4%
Experimental: as §1, with “ripasudil,” for “netarsudil,”, “ripasudil” for “netarsudil”
To purified water were added polyoxyl 35 castor oil, glycerin, sodium citrate, sodium edetate and benzalkonium chloride to dissolve them, and after adjusting pH, purified water was added to adjust the whole amount.
as §2
Commercially available physiological saline solution (trade name: Otsuka Normal Saline, obtained from Otsuka Pharmaceutical Factory, Inc.) was used as it was.
Commercially available ripasudil eye drop was used as it was.
as §3, with “ripasudil” for “netarsudil”, “base” for “base of the omidenepag isopropyl solution”, “physiological saline” for “base of the netarsudil”
Omidenepag isopropyl solution: 0.0006w/v% omidenepag isopropyl solution (volume of eye dropped: 20 μL) Ripasudil solution: ripasudil eye drop (trade name: Glanatec (Registered Trademark) eye drops 0.4%, volume of eye dropped: 20 μL)
Experimental animal: cynomolgus monkey (sex: male, 7 monkeys per a group)
[1] Concomitant Administration of Omidenepag Isopropyl and Ripasudil
as §4, §5
(3) The omidenepag isopropyl solution was applied to one eye of the experimental animal (the contralateral eye was untreated). After a short time (after about 5 minutes), the ripasudil solution was applied to the same eye.
(4) After 2 hours, 4 hours, 6 hours, 8 hours and 24 hours from applying the omidenepag isopropyl solution to the eye, one drop of 0.4% oxybuprocaine hydrochloride eye drop was applied to the eye to be measured for the intraocular pressure respectively, and after local anesthesia, the intraocular pressure was measured. Also, the intraocular pressure was measured each three times, and the average value was shown in the results.
[2] Single Administration of Omidenepag Isopropyl
The test was carried out in the same manner as the above-mentioned concomitant administration test except for changing the ripasudil solution to the physiological saline solution.
[3] Single Administration of Ripasudil
The test was carried out in the same manner as the above-mentioned concomitant administration test except for changing the omidenepag isopropyl solution to the base.
The test was carried out in the same manner as the above-mentioned concomitant administration test except for changing the omidenepag isopropyl solution to the base and changing the ripasudil solution to the physiological saline solution.
The changes in the intraocular pressure values are shown by an average value±SEM of the difference from the value (0 hour) before administration of seven monkeys in each group with regard to each measurement time point of each individual. […]

Structure (SMILES)	change in intraocular pressure value (difference from value before administration) (normal pressure monkeys [1]; 2 hours after dropping)	change in intraocular pressure value (difference from value before administration) (normal pressure monkeys [1]; 4 hours after dropping)	change in intraocular pressure value (difference from value before administration) (normal pressure monkeys [1]; 6 hours after dropping)	change in intraocular pressure value (difference from value before administration) (normal pressure monkeys [1]; 8 hours after dropping)	change in intraocular pressure value (difference from value before administration) (normal pressure monkeys [1]; 24 hours after dropping)	change in intraocular pressure value (difference from value before administration) (normal pressure monkeys [2]; 2 hours after dropping)	change in intraocular pressure value (difference from value before administration) (normal pressure monkeys [2]; 4 hours after dropping)	change in intraocular pressure value (difference from value before administration) (normal pressure monkeys [2]; 6 hours after dropping)	change in intraocular pressure value (difference from value before administration) (normal pressure monkeys [2]; 8 hours after dropping)	change in intraocular pressure value (difference from value before administration) (normal pressure monkeys [2]; 24 hours after dropping)
Cc1ccc(C(=O)OCc2ccc([C@@H](CN)C(=O)Nc3ccc4cnccc4c3)cc2)c(C)c1 [Netarsudil, [4-[(1S)-1-(aminomethyl)-2-(isoquinolin-6-ylamino)-2-oxoethyl]phenyl]methyl 2,4-dimethylbenzoate]	−1.5	−2.3	−3.0	−3.0	−0.8					
CC(C)OC(=O)CNc1cccc(CN(Cc2ccc(-n3cccn3)cc2)S(=O)(=O)c2cccnc2)n1 [Omidenepag isopropyl, isopropyl (6-{[4-(pyrazol-1-yl)benzyl](pyridin-3-ylsulfonyl)aminomethyl}pyridin-2-ylamino)acetate]	−0.9	−2.5	−2.5	−2.3	−0.3	0.0	−1.2	−0.7	−0.6	−0.1
C[C@H]1CNCCCN1S(=O)(=O)c1cccc2cncc(F)c12 [Ripasudil, (S)-(-)-1-(4-fluoro-5-isoquinolinesulfonyl) 2-methyl-1,4-homopiperazine]						−2.7	−1.6	−1.6	−0.8	0.0
